Publication PMC8289286, “In Silico, In Vitro, and In Vivo Evaluation of Precipitation Inhibitors in Supersaturated Lipid-Based Formulations of Venetoclax” (Molecular Pharmaceutics, 2021)
≈ marks a conversion by molar mass, not a printed value. Read-outs that look alike come from different tables or passages of the source.

Experiments:
[1] = Biorelevant solubility in FaSSIF and FeSSIF; format: physicochemical
Description: FaSSIF and fed state simulated intestinal fluid (FeSSIF) was prepared according to the instructions by biorelevant.com. FeSSIF was used directly, whereas FaSSIF was left at room temperature for 2 h prior to usage. Excess venetoclax was added to 2 mL of biorelevant media and placed in a water bath shaker at 200 shakes/min (GLS400, Grant Instruments, UK) and 37 °C. Samples were taken after 3, 6, and 24 h and centrifuged at 21,380g and 37 °C for 15 min (Mikro 200 R, Andreas Hettich GmbH & Co. KG, Germany). The supernatant was transferred to a new sample tube and centrifuged again under identical conditions. Subsequently, the supernatant was diluted with the mobile phase before analysis by HPLC.
The samples were analyzed using an Agilent 1200 series HPLC system (Agilent Technology Inc., US) that comprised a binary pump, degasser, autosampler, and variable wavelength detector. Data were analyzed using the software EZChrom Elite version 3.2. Venetoclax was separated from the sample matrix with a Zorbax Eclipse Plus-C18 column (5 μm, 4.6 mm × 150 mm) including a Zorbax Eclipse Plus-C18 guard column (5 μm, 4.6 mm × 12.5 mm) at 40 °C. The mobile phase consisted of (a) acetonitrile with 0.5% trifluoroacetic acid (TFA) and (b) water with 0.5% TFA at a ratio of 53:47 (a/b v/v) and was used at a flow rate of 1 mL/min. The injection volume was 20 μL and the detection wavelength was set to 316 nm. The limit of detection was 20 ng/mL and the limit of quantification (LOQ) was 65 ng/mL determined using the standard error of the y-intercept according to the International Council for Harmonization (ICH) Q2 guidelines.[34]

[2] = Venetoclax solubility in FaSSIF and FaSSIF with dissolved PI; format: physicochemical; conditions: FaSSIF without PI, reference of the PI test
Description: Additionally, the solubility of venetoclax was determined in FaSSIF with dissolved PI. […] 250 μL of samples were taken at 3, 6, and 24 h and filtered through a 0.2 μm syringe filter (Whatman Spartan 13/0.2), diluted with acetonitrile (containing 0.5% (v/v) TFA), and analyzed by HPLC as described above.

[3] = cited from earlier work
[4] = cited from earlier work; remark: listed apart in the source
[5] = parameters: method as in PMID 28993217; conditions: cited from earlier work

share of a 100 mg dose dissolved in 250 mL gastrointestinal fluid at FaSSIF solubility ([1]; FaSSIF, 100 mg dose in 250 mL): 1.7% | solubility ([1]; FaSSIF, 37 °C, n = 3): 6.8 ± 1.8 µg/mL (≈ 7.83 µM) | solubility increase in the fed state (FeSSIF) over FaSSIF ([1]; FeSSIF vs FaSSIF, 37 °C): 3.9 fold | share of a 100 mg dose dissolved at FeSSIF solubility ([1]; FeSSIF, 100 mg dose): 6.7% | solubility [2]: 5.2 ± 0.4 µg/mL (≈ 5.99 µM)
SMILES: CC1(C)CCC(CN2CCN(c3ccc(C(=O)NS(=O)(=O)c4ccc(NCC5CCOCC5)c([N+](=O)[O-])c4)c(Oc4cnc5[nH]ccc5c4)c3)CC2)=C(c2ccc(Cl)cc2)C1 [venetoclax]
BCS classification ([3]; based on low aqueous solubility and permeability): BCS class IV | log P [3]: 5.5 | previously reported venetoclax bioavailability in fasted pigs [4]: 17.3 ± 5.5% | amorphous solubility in FaSSIF ([5]; pH 5.3): 20.7 ± 0.5 µg/mL | amorphous solubility in FaSSIF ([5]; pH 6.9): 33.7 ± 13.5 µg/mL | amorphous solubility in FeSSIF ([5]; FeSSIF, pH 5.3): 26.4 ± 0.2 µg/mL | amorphous solubility in FeSSIF ([5]; FeSSIF, pH 6.9): 54.6 ± 2.0 µg/mL | reported amorphous solubility in FeSSIF ([5]; FeSSIF): 26.4 to 54.6 µg/mL
